Results: patent US20120115727A1, “CONTROL OF PHENOXYALKANOIC ACID HERBICIDE-RESISTANT WEEDS WITH 4-AMINO-3-CHLORO-6-(4-CHLORO-2-FLUORO-3-METHOXYPHENYL)PYRIDINE-2-CARBOXYLIC ACID AND ITS SALTS OR ESTERS” (DOW AGROSCIENCES LLC, priority 2010, published 2012)

Columns and labels:
Experiment in all cases: Postemergence herbicidal activity, greenhouse, visual injury
Type in all cases: in vivo, Papaver rhoeas
Settings in all cases: 20-22 d after application
[1] = tested on: PAPRH-Susceptible (susceptible corn poppy)
Description: (§1) Seeds of the phenoxyalkanoic acid herbicide-resistant and susceptible plant species were planted in Sun Gro MetroMix® 306 planting mixture, which typically has a pH of 6.0 to 6.8 and an organic matter content of about 30 percent, in plastic pots with a surface area of 103.2 square centimeters (cm^2). When required to ensure good germination and healthy plants, a fungicide treatment and/or other chemical or physical treatment was applied. The plants were grown for 7-36 days (d) in a greenhouse with an approximate 14-hour (h) photo-period which was maintained at about 18° C. during the day and 17° C. during the night. Nutrients and water were added on a regular basis and supplemental lighting was provided with overhead metal halide 1000-Watt lamps as necessary. The plants were employed for testing when they reached the second or third true leaf stage.
(§2) Treatments consisted of the acid or esters of 4-amino-3-chloro-6-(4-chloro-2-fluoro-3-methoxyphenyl)pyridine-2-carboxylic acid (Compound I) and 2,4-D, mecoprop and 2-(4-chloro-2-methyl-phenoxy)acetic acid (MCPA) alone. Weighed amounts of the herbicides were dissolved in a volume of 97:3 volume-per-volume (v/v) acetone/dimethylsulfoxide (DMSO) to obtain concentrated solutions. […] The concentrated solutions of the test compound were diluted with the addition of an aqueous mixture containing acetone, water, isopropyl alcohol, DMSO, Agri-Dex crop oil concentrate, and Triton® X-77 surfactant in a 64.7:26.0:6.7:2.0:0.7:0.01 v/v ratio. Test compounds were diluted to the appropriate application rate with a dilution solution which was prepared by mixing the appropriate volume of 97:3 v/v acetone/DMSO and the appropriate volume of an aqueous mixture containing acetone, water, isopropyl alcohol, DMSO, Agri-Dex crop oil concentrate, and Triton® X-77 surfactant in a 64.7:26.0:6.7:2.0:0.7:0.01 v/v ratio. Compound requirements are based upon a 12 mL application volume at a rate of 187 liters per hectare (L/ha). Spray solutions of 2,4-D, mecoprop and MCPA were prepared by diluting an aliquot of the concentrated herbicide with an aqueous mixture containing 1.25% v/v Agri-Dex. 2,4-D, mecoprop and MCPA were applied at 1×, 2× and 4× of the recommended application rate.
(§3) Formulated compounds were applied to the plant material with an overhead Mandel track sprayer equipped with 8002E nozzles calibrated to deliver 187 L/ha over an application area of 0.503 square meters (m^2) at a spray height of 18 inches (43 centimeters (cm)) above average plant canopy. Control plants were sprayed in the same manner with the solvent blank.
(§4) The treated plants and control plants were placed in a greenhouse as described above and watered by sub-irrigation to prevent wash-off of the test compounds. After 20-22 d, the condition of the test plants as compared with that of the control plants was determined visually and scored on a scale of 0 to 100 percent where 0 corresponds to no injury and 100 corresponds to complete kill.

[2] = tested on: PAPRH-S2F01502 (phenoxyalkanoic acid herbicide-resistant corn poppy)
Description: as §1, §2, §3, §4

[3] = tested on: PAPRH-S4F00101 (phenoxyalkanoic acid herbicide-resistant corn poppy)
Description: as §1, §2, §3, §4

[4] = tested on: PAPRH-S4F00103 (phenoxyalkanoic acid herbicide-resistant corn poppy)
Description: as §1, §2, §3, §4

[5] = tested on: PAPRH-S1F00101 (phenoxyalkanoic acid herbicide-resistant corn poppy)
Description: as §1, §2, §3, §4

Structure (SMILES)	Activity (visual injury, 0 = no injury, 100 = complete kill) PAPRH-Susceptible ([1]; 800 g ae/ha)	Activity (visual injury, 0 = no injury, 100 = complete kill) PAPRH-Susceptible ([1]; 1600 g ae/ha)	Activity (visual injury, 0 = no injury, 100 = complete kill) PAPRH-Susceptible ([1]; 3200 g ae/ha)	Activity (visual injury, 0 = no injury, 100 = complete kill) PAPRH-S2F01502 ([2]; 800 g ae/ha)	Activity (visual injury, 0 = no injury, 100 = complete kill) PAPRH-S2F01502 ([2]; 1600 g ae/ha)	Activity (visual injury, 0 = no injury, 100 = complete kill) PAPRH-S2F01502 ([2]; 3200 g ae/ha)	Activity (visual injury, 0 = no injury, 100 = complete kill) PAPRH-S4F00101 ([3]; 800 g ae/ha)	Activity (visual injury, 0 = no injury, 100 = complete kill) PAPRH-S4F00101 ([3]; 1600 g ae/ha)	Activity (visual injury, 0 = no injury, 100 = complete kill) PAPRH-S4F00101 ([3]; 3200 g ae/ha)	Activity (visual injury, 0 = no injury, 100 = complete kill) PAPRH-S4F00103 ([4]; 800 g ae/ha)	Activity (visual injury, 0 = no injury, 100 = complete kill) PAPRH-S4F00103 ([4]; 1600 g ae/ha)	Activity (visual injury, 0 = no injury, 100 = complete kill) PAPRH-S4F00103 ([4]; 3200 g ae/ha)	Activity (visual injury, 0 = no injury, 100 = complete kill) PAPRH-S1F00101 ([5]; 800 g ae/ha)	Activity (visual injury, 0 = no injury, 100 = complete kill) PAPRH-S1F00101 ([5]; 1600 g ae/ha)	Activity (visual injury, 0 = no injury, 100 = complete kill) PAPRH-S1F00101 ([5]; 3200 g ae/ha)	further results
O=C(O)COc1ccc(Cl)cc1Cl [2,4-D, (2,4-dichlorophenoxy)acetic acid]	85%	94%	99%	15%	53%	51%	22%	42%	33%	21%	19%	59%	21%	16%	50%	
Cc1cc(Cl)ccc1OCC(=O)O [MCPA, 2-(4-chloro-2-methyl-phenoxy)acetic acid]	70%	89%	100%	28%	14%	58%	28%	37%	60%	23%	40%	57%	14%	23%	57%	
COc1c(Cl)ccc(-c2cc(N)c(Cl)c(C(=O)O)n2)c1F [Compound I, 4-amino-3-chloro-6-(4-chloro-2-fluoro-3-methoxyphenyl)pyridine-2-carboxylic acid]																Activity (visual injury, 0 = no injury, 100 = complete kill) PAPRH-Susceptible ([1]; 7.5 g ae/ha): 95%; Activity (visual injury, 0 = no injury, 100 = complete kill) PAPRH-Susceptible ([1]; 10 g ae/ha): 97%; Activity (visual injury, 0 = no injury, 100 = complete kill) PAPRH-S2F01502 ([2]; 7.5 g ae/ha): 93%; Activity (visual injury, 0 = no injury, 100 = complete kill) PAPRH-S2F01502 ([2]; 10 g ae/ha): 94%; Activity (visual injury, 0 = no injury, 100 = complete kill) PAPRH-S4F00101 ([3]; 7.5 g ae/ha): 88%; Activity (visual injury, 0 = no injury, 100 = complete kill) PAPRH-S4F00101 ([3]; 10 g ae/ha): 94%; Activity (visual injury, 0 = no injury, 100 = complete kill) PAPRH-S4F00103 ([4]; 7.5 g ae/ha): 78%; Activity (visual injury, 0 = no injury, 100 = complete kill) PAPRH-S4F00103 ([4]; 10 g ae/ha): 95%; Activity (visual injury, 0 = no injury, 100 = complete kill) PAPRH-S1F00101 ([5]; 7.5 g ae/ha): 90%; Activity (visual injury, 0 = no injury, 100 = complete kill) PAPRH-S1F00101 ([5]; 10 g ae/ha): 90%
